# Experimental data reported in article PMC4300089, “Structure-Guided Design of Selective Epac1 and Epac2 Agonists” (PLoS Biology, 2015).
# How the values were obtained:
# Epac1^Q270K = biological target: T1, Epac1^Q270K (Homo sapiens, UniProt O95398, Q312K); test: Epac activation assay, Epac1 Q270K mutant; assay type: biochemical
# T1 construct: made in house
# T1 sequence (O95398 150-881 isoform O95398-3 Q270K): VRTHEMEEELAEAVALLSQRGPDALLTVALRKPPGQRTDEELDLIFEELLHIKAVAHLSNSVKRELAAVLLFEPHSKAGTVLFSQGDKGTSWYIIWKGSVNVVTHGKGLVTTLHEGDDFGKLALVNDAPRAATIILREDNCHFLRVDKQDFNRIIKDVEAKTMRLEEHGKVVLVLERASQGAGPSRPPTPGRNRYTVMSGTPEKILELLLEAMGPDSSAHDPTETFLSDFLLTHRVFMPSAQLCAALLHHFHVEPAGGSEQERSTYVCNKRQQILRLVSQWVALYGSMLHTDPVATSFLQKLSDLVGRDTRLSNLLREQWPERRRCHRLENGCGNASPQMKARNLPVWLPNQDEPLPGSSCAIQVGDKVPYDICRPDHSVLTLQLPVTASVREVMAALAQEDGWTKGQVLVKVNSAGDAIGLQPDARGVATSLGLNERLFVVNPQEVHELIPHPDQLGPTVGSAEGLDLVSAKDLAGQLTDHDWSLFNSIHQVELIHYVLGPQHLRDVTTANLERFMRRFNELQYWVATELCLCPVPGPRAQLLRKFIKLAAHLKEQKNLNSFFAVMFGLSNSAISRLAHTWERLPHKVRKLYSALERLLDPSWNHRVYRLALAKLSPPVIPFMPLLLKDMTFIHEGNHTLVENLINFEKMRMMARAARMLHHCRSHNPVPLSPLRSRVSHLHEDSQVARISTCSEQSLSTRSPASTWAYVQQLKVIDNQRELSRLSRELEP
# PKA = test: Cellular PKA activity: P-VASP band shift in U2OS Epac1 and Epac2 cell lines; assay type: cell-based; settings: for rel. P-VASP: PKA, average of Epac1 and Epac2 cell lines, relative to induction with forskolin and IBMX, Fig. 6C; for activation of PKA in cells: U2OS cell lines
# Experimental: Rap•GTP levels were determined by precipitating GTP-bound Rap specifically from cell lysates and subsequent western Blotting with an α-Rap antibody (Santa Cruz Biotechnology). To generate stable cell lines, U2OS cells were transfected with pBabe-Flag-Epac1 (Epac1, homo sapiens, amino acids 1–881) or pBabe-Flag-Epac2 (Epac2, mus musculus, amino acids 1–993), selected for Epac expression and maintained under selection with 2 mg/l puromycin. The cells were cultured according to standard protocols. The activity of PKA was determined by western blotting with a monoclonal α-VASP antibody (BD Transduction Laboratories). Blots were developed by enhanced chemiluminescence (ECL) and the use of X-ray films; for quantification films were scanned. The intensities of the Rap•GTP bands and the upper band of VASP (P-VASP) were determined for each condition in ImageJ and normalized to the stimulation with forskolin and IBMX for each blot.
# Epac2^Δ280,K450A = biological target: T2, Epac2^Δ280,K450A (Mus musculus, UniProt Q9EQZ6, K468A); test: Epac activation assay, Epac2 K450A mutant; assay type: biochemical
# T2 construct: made in house
# T2 sequence (Q9EQZ6 281-993 isoform Q9EQZ6-3 K450A): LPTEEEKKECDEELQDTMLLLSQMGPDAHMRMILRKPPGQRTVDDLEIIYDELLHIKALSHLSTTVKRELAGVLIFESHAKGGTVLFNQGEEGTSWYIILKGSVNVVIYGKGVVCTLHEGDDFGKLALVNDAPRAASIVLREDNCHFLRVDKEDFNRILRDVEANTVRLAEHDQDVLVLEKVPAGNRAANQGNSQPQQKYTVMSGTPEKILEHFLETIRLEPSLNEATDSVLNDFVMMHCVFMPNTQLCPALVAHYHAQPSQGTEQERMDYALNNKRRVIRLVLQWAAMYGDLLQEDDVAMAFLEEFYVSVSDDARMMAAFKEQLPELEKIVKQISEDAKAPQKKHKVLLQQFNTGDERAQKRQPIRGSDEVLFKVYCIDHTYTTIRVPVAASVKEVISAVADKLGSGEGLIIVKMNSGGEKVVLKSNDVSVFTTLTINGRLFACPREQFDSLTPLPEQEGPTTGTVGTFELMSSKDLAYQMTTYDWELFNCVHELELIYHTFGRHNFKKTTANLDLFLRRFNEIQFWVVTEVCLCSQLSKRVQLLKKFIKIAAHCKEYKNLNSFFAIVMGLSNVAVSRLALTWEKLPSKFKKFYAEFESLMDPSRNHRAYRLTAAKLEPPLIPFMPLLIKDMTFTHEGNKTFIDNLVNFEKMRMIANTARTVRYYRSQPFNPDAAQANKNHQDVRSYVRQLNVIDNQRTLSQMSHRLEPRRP
# Experimental: Murine Epac2 was used as all previous structural studies were performed with it.
# The activity of Epac was determined by a fluorescence assay. […] The fluorescence intensity of Rap1B•mGDP is approximately twice that of free mGDP, and thus, nucleotide exchange can be observed as a decay in fluorescence upon the addition of excess unlabeled GDP.
# primary human islets = test: Insulin secretion assay in primary human islets; assay type: cell-based; settings: 25 to 100 μM; compared with Forskolin/IBMX
# Experimental: Islets were isolated from two human donor pancreases. Intact islets (n = 20 per well) were seeded on ultra-low attachment 96-well plate. After 3 days of culture, the pancreatic islets were washed two times with 115 mM NaCl, 5 mM KCl, 24 mM NaHCO3, 2.2 mM CaCl2, 1 mM MgCl2, 20 mM HEPES, and 0.2% human serum albumin (incubation buffer) and primed for 1.5 h at 37°C in incubation buffer supplemented with 2 mM glucose (low glucose). Subsequently, the cells were incubated in fresh incubation buffer supplemented with 2 mM glucose for 1 h to measure the basal insulin secretion levels. […] The cell supernatants were collected immediately after incubation with low and high glucose. The insulin concentrations were measured by ELISA (Insulin ELISA Kit, Mercodia). The insulin secretion was expressed as the ratio of insulin concentration at high and low glucose concentrations for each well (insulin secretion index).
Structure (SMILES),rel. P-VASP (PKA),activation of PKA in cells (PKA),"kobs (Epac2^Δ280,K450A; 0.01 μM compound)","kobs (Epac2^Δ280,K450A; 0.05 μM compound)","kobs (Epac2^Δ280,K450A; 0.08 μM compound)","kobs (Epac2^Δ280,K450A; 0.2 μM compound)","kobs (Epac2^Δ280,K450A; 0.3 μM compound)","kobs (Epac2^Δ280,K450A; 0.5 μM compound)","kobs (Epac2^Δ280,K450A; 0.6 μM compound)","kobs (Epac2^Δ280,K450A; 0.7 μM compound)","kobs (Epac2^Δ280,K450A; 0.8 μM compound)","kobs (Epac2^Δ280,K450A; 1 μM compound)","kobs (Epac2^Δ280,K450A; 2 μM compound)","kobs (Epac2^Δ280,K450A; 3 μM compound)","kobs (Epac2^Δ280,K450A; 4 μM compound)","kobs (Epac2^Δ280,K450A; 5 μM compound)","kobs (Epac2^Δ280,K450A; 6 μM compound)","kobs (Epac2^Δ280,K450A; 7 μM compound)","kobs (Epac2^Δ280,K450A; 8 μM compound)","kobs (Epac2^Δ280,K450A; 10 μM compound)",other results
"COC1C2OP(=O)(O)OCC2OC1n1c(Sc2ccc(Cl)cc2)nc2c(N)ncnc21 [D-007, 8-pCPT-2′-O-Me-cAMP, reference compound]",0.1351,only minor effects,–,–,–,–,–,–,–,–,–,–,–,–,–,–,–,–,–,–,activation (Epac1^Q270K): poorly activated
"Nc1ncnc2c1nc(Sc1ccc(Cl)cc1)n2[C@@H]1O[C@@H]2COP(=O)(O)O[C@H]2[C@H]1O [L-026, 8-pCPT-cAMP]",0.9052,–,–,–,–,–,–,–,–,–,–,–,–,–,–,–,–,–,–,–,–
"Nc1ncnc2c1ncn2C1OC2COP(O)(=S)OC2C1O (stereo not shown) [S-000, Sp-cAMPS]",–,–,2.9e-05 s⁻¹,4.5e-05 s⁻¹,5.2e-05 s⁻¹,9.9e-05 s⁻¹,0.000114 s⁻¹,0.000137 s⁻¹,0.000137 s⁻¹,0.000253 s⁻¹,0.000277 s⁻¹,0.000309 s⁻¹,0.000364 s⁻¹,0.00043 s⁻¹,0.000497 s⁻¹,0.000529 s⁻¹,0.000661 s⁻¹,0.000655 s⁻¹,0.000698 s⁻¹,0.000703 s⁻¹,"kobs (Epac2^Δ280,K450A; 0.03 μM compound): 3.7e-05 s⁻¹; kobs (Epac2^Δ280,K450A; 20 μM compound): 0.000752 s⁻¹; kobs (Epac2^Δ280,K450A; 30 μM compound): 0.000754 s⁻¹; kobs (Epac2^Δ280,K450A; 40 μM compound): 0.000809 s⁻¹; kobs (Epac2^Δ280,K450A; 50 μM compound): 0.000778 s⁻¹; kobs (Epac2^Δ280,K450A; 60 μM compound): 0.000824 s⁻¹; kobs (Epac2^Δ280,K450A; 70 μM compound): 0.000828 s⁻¹; kobs (Epac2^Δ280,K450A; 80 μM compound): 0.000833 s⁻¹; kobs (Epac2^Δ280,K450A; 100 μM compound): 0.000821 s⁻¹"
"Nc1ncnc2c1nc(SCc1ccccc1)n2[C@@H]1O[C@@H]2CO[P@](O)(=S)O[C@H]2[C@H]1O [S-220, Sp-8-BnT-cAMPS]",0.1961,very low,–,0.000199 s⁻¹,0.000277 s⁻¹,0.000564 s⁻¹,0.000705 s⁻¹,0.000763 s⁻¹,0.000845 s⁻¹,0.000882 s⁻¹,0.000882 s⁻¹,0.000894 s⁻¹,0.000904 s⁻¹,0.000886 s⁻¹,0.000912 s⁻¹,0.000879 s⁻¹,0.00102 s⁻¹,0.00106 s⁻¹,0.00109 s⁻¹,0.00103 s⁻¹,"kobs (Epac2^Δ280,K450A; 0.001 μM compound): 3.1e-05 s⁻¹; kobs (Epac2^Δ280,K450A; 0.003 μM compound): 3.7e-05 s⁻¹; kobs (Epac2^Δ280,K450A; 0.005 μM compound): 4.4e-05 s⁻¹; kobs (Epac2^Δ280,K450A; 0.008 μM compound): 5.2e-05 s⁻¹; kobs (Epac2^Δ280,K450A; 0.02 μM compound): 0.00011 s⁻¹; kobs (Epac2^Δ280,K450A; 0.03 μM compound): 0.000139 s⁻¹; kobs (Epac2^Δ280,K450A; 0.04 μM compound): 0.000168 s⁻¹; kobs (Epac2^Δ280,K450A; 0.06 μM compound): 0.000232 s⁻¹; kobs (Epac2^Δ280,K450A; 0.07 μM compound): 0.00026 s⁻¹; kobs (Epac2^Δ280,K450A; 0.1 μM compound): 0.000306 s⁻¹; kobs (Epac2^Δ280,K450A; 0.4 μM compound): 0.000743 s⁻¹; kmax-value (Epac2^Δ280,K450A; Epac2^Δ280,K450A): reduced to that of S-000; glucose-induced insulin secretion (primary human islets): potentiates glucose-induced insulin secretion with similar efficiency"
"Nc1ncnc2c1ncn2[C@@H]1O[C@@H]2COP(=O)(O)O[C@H]2[C@H]1O [cAMP, reference compound]",–,–,2.72e-05 s⁻¹,4e-05 s⁻¹,5.02e-05 s⁻¹,8.53e-05 s⁻¹,0.000105 s⁻¹,0.000137 s⁻¹,0.000149 s⁻¹,0.000155 s⁻¹,0.000159 s⁻¹,0.000183 s⁻¹,0.000228 s⁻¹,0.000276 s⁻¹,0.000288 s⁻¹,0.000293 s⁻¹,0.0003 s⁻¹,0.000286 s⁻¹,0.0003 s⁻¹,0.000289 s⁻¹,"kobs (Epac2^Δ280,K450A; 0.1 μM compound): 5.2e-05 s⁻¹; kobs (Epac2^Δ280,K450A; 0.4 μM compound): 0.000119 s⁻¹; kobs (Epac2^Δ280,K450A; 20 μM compound): 0.000309 s⁻¹; kobs (Epac2^Δ280,K450A; 30 μM compound): 0.000319 s⁻¹; kobs (Epac2^Δ280,K450A; 40 μM compound): 0.000313 s⁻¹; kobs (Epac2^Δ280,K450A; 50 μM compound): 0.000318 s⁻¹; kobs (Epac2^Δ280,K450A; 60 μM compound): 0.00031 s⁻¹; kobs (Epac2^Δ280,K450A; 70 μM compound): 0.000323 s⁻¹; kobs (Epac2^Δ280,K450A; 80 μM compound): 0.000319 s⁻¹; kobs (Epac2^Δ280,K450A; 100 μM compound): 0.000327 s⁻¹"
